Experimental data reported in patent US12054509B2, “Antimicrobial compounds, compositions, and uses thereof” (Lakewood Amedex, Inc., priority 2017, dated 2024).

Tests used:
E. coli = experiment: MIC broth microdilution (CLSI) at incremental pH, E. coli; type: cell-based; details: Escherichia coli
Description: (§1) MIC testing is conducted using the broth (Mueller Hinton Broth) microdilution procedures relevant to each organism group as established by the Clinical and Laboratory Standards Institute (CLSI; 3-7). MIC plates are prepared in accordance with CLSI (3-7). To prepare the test plates, automated liquid handlers are used to conduct serial dilutions and liquid transfers. Automated liquid handlers utilized in this study include the Multidrop 384 (Labsystems, Helsinki, Finland) and the Biomek 2000 (Beckman Coulter, Fullerton CA). The solution is diluted to desired pH using 1 M Citric Acid or 1 M NaOH buffer. A standardized inoculum of each test organism is prepared per CLSI methods (3, 5-7) to equal a 0.5 McFarland standard in the appropriate media followed by an additional 1:20 dilution (1:10 for anaerobes).
(§2) The plates are then inoculated with 10 μL of the diluted 0.5 McFarland suspension using the Biomek 2000 from low to high drug concentration, resulting in a final concentration of approximately 5×10^5 CFU/mL per well. An un-inoculated plate is incubated for the purpose of assessing solubility of the drug in the test media. The plates are stacked 3 to 4 high, covered with a sterile lid on the top plate, and incubated for 18 to 24 hours according to CLSI. The MIC is recorded as the lowest concentration of respective compound that inhibited visible growth of the organism.

Serratia marcescens = experiment: MIC at pH 3.5 (CLSI, Mueller-Hinton broth); type: cell-based; details: 5 isolates
Description: (§3) Bacterial strains evaluated in this study include Escherichia coli, Klebsiella spp, Serratia marcescens, Proteus mirabilis/vulgaris, Citrobacter spp, Providencia spp, Morganella morganii, Pseudomonas aeruginosa, Staphylococcus aureus (MRSA only), and Enterococcus faecalis. Nu-8 test solutions are adjusted to pH 3.5 with citric acid, and MIC is evaluated per the CLSI methods in Mueller-Hinton broth supplemented accordingly to facilitate growth of specific strains.

Klebsiella pneumoniae = experiment: MIC at pH 3.5 (CLSI, Mueller-Hinton broth); type: cell-based; details: 5 isolates
Description: as §3

[1] = system: Staphylococcus aureus (MRSA); experiment: MIC at pH 3.5 (CLSI, Mueller-Hinton broth); type: cell-based; details: 20 isolates
Description: as §3

Pseudomonas aeruginosa = experiment: MIC at pH 3.5 (CLSI, Mueller-Hinton broth); type: cell-based; details: 20 isolates
Description: as §3

[2] = system: Proteus mirabilis/vulgaris; experiment: MIC at pH 3.5 (CLSI, Mueller-Hinton broth); type: cell-based; details: 5 isolates
Description: as §3

Morganella morganii = experiment: MIC at pH 3.5 (CLSI, Mueller-Hinton broth); type: cell-based; details: 5 isolates
Description: as §3

Providencia species = experiment: MIC at pH 3.5 (CLSI, Mueller-Hinton broth); type: cell-based; details: 5 isolates
Description: as §3

Enterococcus faecalis = experiment: MIC at pH 3.5 (CLSI, Mueller-Hinton broth); type: cell-based; details: 5 isolates
Description: as §3

Escherichia coli = experiment: MIC at pH 3.5 (CLSI, Mueller-Hinton broth); type: cell-based; details: 5 isolates
Description: as §3

Citrobacter species = experiment: MIC at pH 3.5 (CLSI, Mueller-Hinton broth); type: cell-based; details: 5 isolates
Description: as §3

[3] = system: Helicobacter pylori SS1 (CagA+, VacA+); experiment: Helicobacter pylori SS1 infection in C57BL6 mice, bacterial stomach titers; type: in vivo
From the text: The mouse strain used in this study is C57BL6 ranging from 5-6 weeks in age and 18-22 grams in weight. Mice are housed five to a cage with free access to food and water in accordance with NIB guidelines.
A bacterial strain of Helicobacter pylori SS1 (CagA+, VacA+) is adapted for the mouse model from a human clinical isolate and validated in this infection model.
At 6 days prior to infection, a frozen stock is streaked onto one to two Columbia 5% sheep blood agar plates, and the plates are microaerophilically incubated for 72 hours at 37° C. After 72 hours, the plate growth is subcultured onto five Columbia 5% sheep blood agar plates and is incubated as before. After another 72 hours of incubation, the plates are removed, and the plate growth is suspended in sterile 0.9% saline to an OD of 1.5-2.0 at 530 nm. This OD is approximately equal to 1.0e+09 CFU/mL, which is used to orally infect the mice on all 3 infection days. To infect mice, the mice are orally dosed 0.25 mL of the 1.0e+09 CFU/mL via a 20-22 G gavage needle. Mice need to be fasted only before the first infection.
At 1 week post-infection, mice are treated with Nu-8. Multiple dose antibiotic therapies are administered orally at 0.2 mL/dose. Antibiotics are administered 2 times per day and continued for 7 days. The control group is administered the vehicle alone.
Food is removed from cages 18 hours prior to euthanizing animals and each cage is clearly labeled that the animals are being experimentally fasted. Mice are euthanized (CO2 & cervical dislocation). […] The excised stomach is placed into a sterile petri dish and the luminal contents are rinsed away with sterile 1×PBS. Each rinsed stomach is placed into a 14-mL Falcon tube containing 2 mL of 1×PBS and stored on ice. Each stomach is homogenized, 10-fold serial diluted in 1×PBS, spot plated onto Columbia agar with 3.5% laked horse blood±the DENT selective antibiotic supplement, and microaerophilically incubated for 5 days at 37° C. Then, colonies are counted.
Nu-8 is administered at various doses (mg/kg), orally, twice-a-day for 7 days. The formulations, concentration and dose volumes for treatment is established prior to dosing. The positive control group consists of a triple therapy regimen (omeprazole, amoxicillin, and clarithromycin). Negative control used dosing solution without drugs.

P. aeruginosa = experiment: MIC broth microdilution (CLSI) at incremental pH, P. aeruginosa; type: cell-based; details: Pseudomonas aeruginosa
Description: as §1, §2

With CCCCOP(=O)(O)OC[C@H]1O[C@@H](n2ccc(N)nc2=O)C[C@@H]1OP(=O)(O)OCCCC [Nu-8, sodium ((2R,3S,5R)-5-(4-amino-2-oxopyrimidin-1(2H)-yl)-3-((butoxyoxidophosphor-yl)oxy)tetrahydrofuran-2-yl)methyl butyl phosphate] the MIC (E. coli; pH 1) was 9.8 mg/mL, the MIC (E. coli; pH 3) was 37.5 mg/mL and the MIC (E. coli; pH 4) was 75 mg/mL. The MIC (E. coli; pH 5) was > 75 mg/mL, the MIC (E. coli; pH 7) was > 75 mg/mL and the MIC (Serratia marcescens) was 37.5 to 75 mg/mL. The MIC (Klebsiella pneumoniae) was 37.5 to 75 mg/mL, the MIC [1] was 9.38 to 37.5 mg/mL and the MIC50 [1] was 18.8 mg/mL. For the same compound, the MIC90 [1] was 37.5 mg/mL, the MIC (Pseudomonas aeruginosa) was 9.38 to 18.8 mg/mL and the MIC50 (Pseudomonas aeruginosa) was 18.8 mg/mL. It also gave an MIC90 (Pseudomonas aeruginosa) of 18.8 mg/mL, an MIC [2] of 4.69 to 18.8 mg/mL and an MIC (Morganella morganii) of 18.8 mg/mL. It also gave an MIC (Providencia species) of 9.38 to 37.5 mg/mL, an MIC (Enterococcus faecalis) of 4.69 to 18.8 mg/mL and an MIC (Escherichia coli) of 37.5 mg/mL. The MIC (Citrobacter species) was 18.8 to 37.5 mg/mL, the “mean bacterial stomach titer” value ([3]; 0.2 mg (1 mg/mL, 0.2 mL) PO bid 7 days, +7 Days) was 5.62 log10 CFU and the “mean bacterial stomach titer” value ([3]; 0.2 mg (1 mg/mL, 0.2 mL) PO bid 7 days, +14 Days) was 6.2 log10 CFU. For the same compound, the “mean bacterial stomach titer” value ([3]; 1.0 mg (5 mg/mL, 0.2 mL) PO bid 7 days, +7 Days) was 5.21 log10 CFU, the “mean bacterial stomach titer” value ([3]; 1.0 mg (5 mg/mL, 0.2 mL) PO bid 7 days, +14 Days) was 5.67 log10 CFU and the “mean bacterial stomach titer” value ([3]; 2 mg (10 mg/mL, 0.2 mL) PO bid 7 days, +7 Days) was 4.74 log10 CFU. For the same compound, the “mean bacterial stomach titer” value ([3]; 2 mg (10 mg/mL, 0.2 mL) PO bid 7 days, +14 Days) was 5.81 log10 CFU, the MIC (P. aeruginosa; pH 1) was 9.38 mg/mL and the MIC (P. aeruginosa; pH 3) was 18.8 mg/mL. For the same compound, the MIC (P. aeruginosa; pH 4) was 37.5 mg/mL, the MIC (P. aeruginosa; pH 5) was 75 mg/mL and the MIC (P. aeruginosa; pH 7) was > 75 mg/mL.
